{"source": "patent US7358091B2", "about": "“Device and methods for identifying and treating aspirin non-responsive patients” (Portola Pharmaceuticals, Inc., priority 2004, dated 2008)", "key": {"P2Y12-deficient mice [1]": {"test_system": "P2Y12-deficient mice", "description": "This phenotype is rescued by the injection of epinephrine in vivo (Andre, P. et al., J Clin Invest, 112(3):398-406 (2003))."}, "P2Y12-deficient mice [2]": {"test_system": "P2Y12-deficient mice", "conditions": "injection of epinephrine in vivo; cited from earlier work"}, "[3]": {"test_system": "preformed thrombi on collagen coated surface", "test": "Real time thrombosis perfusion chamber assay, destabilization of preformed thrombi", "type": "cell-based", "conditions": "for effect on preformed thrombi, aspirin background: aspirinated blood over preformed aspirinated thrombi; for mean slope after first perfusion (mSAFP), aspirin background: aspirinated blood, aspirin alone = saline control, eptifibatide; for mean slope after first perfusion (mSAFP), aspirin background / mean slope after first perfusion (mSAFP): 2-MeSAMP 100 μM; for mean slope after first perfusion (mSAFP): untreated blood 210 seconds at 1500/sec, then blood treated with agent, eptifibatide 2.4 μM, Ifetroban 0.3 μM; for effect on preformed thrombi: untreated blood background, second perfusion with agent", "protocol": "Evaluation of the ability of thromboxane receptor (TP) antagonists to destabilize preformed thrombi was performed as followed in the real time thrombosis perfusion chamber assay (monitoring of fluorescently labeled platelets onto collagen coated surface). Untreated samples of blood were first perfused through the collagen-coated perfusion chamber for 210 seconds at 1500/sec. […] In order to evaluate a possible role for PGD2 in mediating thrombus destabilization, aspirinated blood was perfused in presence of PDG2 over preformed aspirinated thrombi."}, "[4]": {"test_system": "thrombotic process on collagen", "test": "Fibrillar type III collagen-coated capillary perfusion chamber at arterial shear rates", "type": "cell-based, human", "protocol": "In one example of the perfusion chamber assay of the invention, the assay enables the investigator to evaluate thrombotic process under arterial shear rates in less than 15 minutes after blood draw. The simplicity of the perfusion chamber allows for multiple parallel experiments as the thrombogenic surface is deposited inside a regular glass capillary tube. The system is easy to use as only 2 tubings are needed: a proximal tubing to connect the blood sample to the capillary, and a distal tubing which connects the capillary to the pump. A limited amount of blood is required to reconstitute arterial shear rate conditions (4 ml of blood for 1 perfusion chamber). […]\nAt the end of the perfusion, the capillary is rinsed for 20 sec and fixed with 2.5% phosphate buffered glutaraldehyde for 1 minute. […] An En Face picture located 5 mm downstream of the proximal part of the capillary is taken, and the grey level of each thrombus or platelets located in a window 400 μm long×400 μm wide is measured (Simple PCI software, Compix Inc. Imaging System). Thrombotic deposits were then embedded in Epon, subsequently cross sectioned (at the same location used for measurement of the grey level) and their mean thrombus volume determined. […]"}, "TxB2 generation": {"test_system": "TxB2 generation", "test": "TxB2 generation", "type": "cell-based, human", "conditions": "325 mg/d ASA for 3 days, compared with baseline, all 5 donors", "protocol": "(§1) The effects of aspirin (normal volunteers were drug free for 2 weeks prior to 325 mg/d ASA for 3 days) and 50% inhibition of P2Y12 on arachidonic acid-induced platelet aggregation in PRP, TxB2 generation, PFA-100 with both Collagen/Epinephrine (CEpi) and Collagen/ADP (CADP) cartridges were evaluated. Arachidonic acid-induced platelet aggregation and TxB2 generation were abolished by aspirin treatment compared with baseline for all 5 donors. […] All donors gave the expected prolongation of the CEpi cartridge after aspirin treatment. In addition, 2 out of 5 donors presented unusual phenotypes (FIG. 6). In donor 1, aspirin increased the CADP closure time, whereas in donor 2, P2Y12 antagonism increased closure time of the CEpi cartridge above the limit defined by the manufacturer for aspirin effect."}, "[5]": {"test_system": "platelet aggregation in PRP", "test": "Arachidonic acid-induced platelet aggregation in PRP", "type": "cell-based, human", "conditions": "325 mg/d ASA for 3 days, compared with baseline, all 5 donors", "protocol": "as §1"}, "[6]": {"test_system": "platelet function under high shear stress", "test": "PFA-100 closure time, CEpi and CADP cartridges", "type": "cell-based, human", "conditions": "325 mg/d ASA for 3 days", "description": "Whole blood was drawn into 3.8% Sodium citrate vacuum tubes and analyzed using the Platelet Function Analyzer (PFA-100). Sample results are based on the platelet function under high shear stress. Platelet adhesion and aggregation are triggered by a biologically active membrane coated with collagen and either epinephrine (EPI) or ADP. Platelets exposed to EPI or ADP under flow conditions are activated on the collagen surface. The time required to full occlusion of an aperture cut in the membrane defines the “closure time” (CT).\nas §1"}, "[7]": {"test_system": "mixed platelet/leukocyte aggregates", "test": "Arachidonic acid-/shear-induced platelet aggregation assay in whole blood", "type": "cell-based", "conditions": "0.8 mM arachidonic acid, 1700/sec followed by 80/sec", "protocol": "FIG. 10 is a schematic representation of the AA/shear-induced thrombotic process utilized in our preliminary study. AA (0.8 mM) is added to citrate-anticoagulated blood (37° C. incubation time=1 minute) then perfused via a silastic tubing to a stenosis (high shear rate, 1700/sec: Hγ) followed by a low shear rate area (80/sec: Lγ). Observation of the mixed platelet/leukocyte aggregates is performed under UV at 10× magnification using a fluorescent microscope.\nPlatelets are labeled in whole blood with Rhodamine 6G as described above. Following addition of AA, blood will be perfused through 2 successive chambers which generate high (1500/sec) and low (50/sec) shear rates. The high shear rate induces platelet activation and aggregation is created by a sudden decrease in capillary diameter. The low shear rate area allows for the real time evaluation/quantification of the size of the platelet/platelet, platelet/leukocyte aggregates that will pass and/or adhere via the Simple PCI software or similar software capable of evaluating the size of the flowing thrombi.\nLarge mixed platelet/leukocyte aggregates are detectable in the low shear area (observable after less than 30 seconds) when whole blood is treated with 0.8 mM arachidonic acid and perfusion through a small uncoated circular capillary at 1700/sec followed by a larger capillary at 80/sec. […]"}, "patients": {"test_system": "patients", "conditions": "human, in vivo; cited from earlier work"}, "platelet aggregation": {"test_system": "platelet aggregation", "test": "Ultegra RPFA-ASA assay in whole blood", "type": "cell-based, human", "conditions": "aspirin 275 μM added to the blood in vitro; all 5 blood donors; compared with 50% inhibition of P2Y12", "quoted_text": "Whole blood was drawn into 3.2% Sodium citrate vacuum tubes and analyzed using the Ultegra RPFA-ASA assay. Sample results are based on the extent of platelet aggregation, reported in Aspirin Reaction Units (ARU). ARU≥250 is consistent with no platelet dysfunction, ARU<550 is consistent with platelet dysfunction due to aspirin.\nThe effects of aspirin (275 μM added to the blood in vitro) and 50% inhibition of P2Y12 (corresponding to the extent of inhibition achieved in patients under PLAVIX (clopidogrel bisulfate) treatment) were evaluated in the RPFA-ASA (n=5). A direct P2Y12 antagonist (5-chloro-N-[({4-[7-fluoro-6-(methylamino)-1-oxoisoquinolin-2(1H)-yl]phenyl}amino)carbonyl]thiophene-2-sulfonamide) is used in vitro at a concentration that inhibits 50% of ADP-induced platelet aggregation in PRP as PLAVIX (clopidogrel bisulfate) cannot be used in vitro (it needs to be metabolized by the liver to generate the active metabolite)."}, "[8]": {"test_system": "thrombotic deposits on type III collagen", "test": "Perfusion chamber assay on type III collagen at 1000/sec, end-point grey level", "type": "cell-based, human", "conditions": "citrate blood, 2 donors before and after aspirin 325 mg/d for 3 days, DMSO-treated and P2Y12 antagonism+epinephrine-treated blood", "protocol": "(§2) FIG. 9 is a representation of the thrombotic deposits formed on type III collagen at 1000/sec in the rectangular perfusion chamber in 2 blood donors, before and after aspirin uptake (325 mg/d for 3 days). Anticoagulated blood (citrate 3.8%, 1:9 v of blood) is collected and added into 5 ml tubes containing either DMSO (vehicle control for the P2Y12 antagonist), a direct P2Y12 antagonist at 5 μM (which totally block the receptor), or a direct P2Y12 antagonist at 5 μM in presence of 20 μM Epinephrine. Anticoagulated blood is perfused through a rectangular capillary (0.2×2 mm, Vitrocom) coated with fibrillar type III collagen at 1000/sec for 4 minutes. Thrombotic deposits are then rinsed for 15 seconds with buffer “C”, fixed for 1 minute in phosphate-buffered glutaraldehyde (2.5%), stained for 45 sec in toluidine blue. Picture is taken at 5 mm from the proximal part of the chamber, and measurement of the grey level performed with Prism software.\nA perfusion chamber assay on type III collagen (DMSO (vehicle) treated (a), full P2Y12 antagonism (b), full P2Y12 antagonism with epinephrine 20 μM(c)) have been performed before and 3 days after a daily dose of aspirin (325 mg)."}, "[9]": {"test_system": "aggregation induced by ADP", "test": "Aggregation induced by ADP", "type": "cell-based", "conditions": "100 μM"}, "P2Y12 receptor": {"molecular_target": "T1, P2Y12 receptor (Homo sapiens, UniProt Q9H244)", "T1 construct": "endogenous in cells; host or cells: platelets in citrate-anticoagulated whole blood of blood donors", "T1 sequence (Q9H244 whole entry)": "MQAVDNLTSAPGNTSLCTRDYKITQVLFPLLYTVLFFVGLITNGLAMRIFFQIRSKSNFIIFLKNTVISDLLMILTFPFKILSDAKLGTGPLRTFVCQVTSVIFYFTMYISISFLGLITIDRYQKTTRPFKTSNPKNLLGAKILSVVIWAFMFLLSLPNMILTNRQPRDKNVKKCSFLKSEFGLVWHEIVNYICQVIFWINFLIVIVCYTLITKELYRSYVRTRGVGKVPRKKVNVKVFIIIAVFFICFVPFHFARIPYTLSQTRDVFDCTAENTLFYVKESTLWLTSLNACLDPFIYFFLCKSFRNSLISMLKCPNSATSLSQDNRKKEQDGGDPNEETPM", "test": "P2Y12 receptor blockade in vitro in whole blood", "type": "cell-based", "conditions": "5 μM", "protocol": "as §2\nMost ACS patients eligible for percutaneous coronary intervention (PCI) are under PLAVIX (clopidogrel bisulfate) therapy. […]"}, "[10]": {"test_system": "thrombus formation on type III collagen", "test": "Real time collagen-coated perfusion chamber, kinetics of thrombus formation", "type": "cell-based, human", "conditions": "2.5 μM, PPACK-anticoagulated blood, collagen type III-coated capillary", "quoted_text": "Phe-Pro-Arg-chloromethylketone (PPACK)-anticoagulated blood is added to a tube containing Rhodamine 6-glucose (Rhodamine 6G) (0.2 mg/ml). Five minutes later, blood is perfused through a rectangular capillary mounted on the stage of an inverted microscope (under ultraviolet (UV) light (Rhodamine filter) platelets appear fluorescent). As the blood flows on the collagen type III-coated capillary chamber, platelets adhere and start building a thrombus. Two frames per second are recorded and analyzed for mean fluorescent intensity for the entire perfusion period. At the end of the perfusion, standard deviation in light intensity is plotted against the time by the Prism software.\nAfter blood collection into either citrate or PPACK (4 ml are needed per perfusion chamber) Rhodamine 6G (0.2 mg/mL) is added to the blood and incubated at 37° C. for 5 minutes. Collagen-coated rectangular glass capillaries (Vitrocom) are mounted on the stage of a fluorescent microscope and illuminated under light, UV, or both. […] Platelet collagen interactions and thrombus formation are recorded in real time with the Simple PCI software. The mean fluorescence intensity parallels the kinetics of the thrombotic process, because all platelets are labeled by rhodamine 6G. The kinetics of the thrombotic process is recorded at 2 frames per second for 5 minutes and plotted versus time."}}, "note": "Bridge positions count the residues as written; N and C are the ends. Square brackets hold non-standard residues; d marks the D form. Peptide text beside a SMILES is read from it. hArg = N=C(N)NCCCC[C@H](N)C(=O)O; Mpa = O=C(O)CCS"}
{"smiles": "CNC[C@H](O)c1ccc(O)c(O)c1", "note": "[epinephrine]", "values": [{"measurement": "phenotype of P2Y12-deficient mice in a collagen-coated perfusion chamber", "setting": "P2Y12-deficient mice [1]", "result": "correct the phenotype"}, {"measurement": "protection of P2Y12-deficient mice from vascular occlusion after FeCl3 injury", "setting": "P2Y12-deficient mice [2]", "result": "rescued"}]}
{"smiles": "CC(=O)Oc1ccccc1C(=O)O", "note": "[aspirin]", "values": [{"measurement": "effect on preformed thrombi, aspirin background", "setting": "[3]", "result": "slow and moderate destabilization"}, {"measurement": "mean slope after first perfusion (mSAFP), aspirin background", "setting": "[3]", "result": "−1.07±0.3"}, {"measurement": "antithrombotic effects on collagen in combination with P2Y12 inhibitors", "setting": "[4]", "result": "synergize"}, {"measurement": "TxB2 generation", "setting": "TxB2 generation", "result": "abolished"}, {"measurement": "arachidonic acid-induced platelet aggregation in PRP", "setting": "[5]", "result": "abolished"}, {"measurement": "PFA-100 closure time, CEpi cartridge", "setting": "[6]; all donors", "result": "prolongation"}, {"measurement": "PFA-100 closure time, CADP cartridge", "setting": "[6]; donor 1 (unusual phenotype)", "result": "increased"}, {"measurement": "large mixed platelet/leukocyte aggregates in the low shear area", "setting": "[7]", "result": "prevented"}, {"measurement": "patients with aspirin-induced asthma", "setting": "patients", "result": "≤ 20", "unit": "%"}, {"measurement": "reduction of post-acute myocardial infarction (AMI) cardiovascular events", "setting": "patients", "result": "25-30%"}, {"measurement": "reduction of the incidence of AMI in the acute phase of unstable angina", "setting": "patients", "result": "up to 25%"}, {"measurement": "aspirin effects in RPFA-ASA (Aspirin Reaction Units)", "setting": "platelet aggregation", "result": "smaller than that obtained with 50% inhibition of P2Y12"}, {"measurement": "thrombotic deposits formed on type III collagen (grey level)", "setting": "[8]", "result": "aspirin effect is observed"}]}
{"smiles": "CSc1nc(N)c2ncn([C@@H]3O[C@H](COP(=O)(O)O)[C@@H](O)[C@H]3O)c2n1", "note": "[2-MeSAMP]", "values": [{"measurement": "effect on preformed thrombi, aspirin background", "setting": "[3]", "result": "sudden dethrombosis"}, {"measurement": "mean slope after first perfusion (mSAFP), aspirin background", "setting": "[3]", "result": "−4.1±0.7"}, {"measurement": "mean slope after first perfusion (mSAFP)", "setting": "[3]", "result": "−1.8±0.2"}, {"measurement": "effect on preformed thrombi", "setting": "[3]", "result": "marked dethrombosis"}, {"measurement": "aggregation induced by ADP", "setting": "[9]", "result": "totally blocks"}]}
{"smiles": "CCCCC[C@H](O)/C=C/[C@H]1C(=O)C[C@H](O)[C@@H]1C/C=C\\CCCC(=O)O", "note": "[PDG2, PGD2]", "values": [{"measurement": "effect on preformed thrombi, aspirin background", "setting": "[3]", "result": "significant, spontaneous reversal of thrombosis"}]}
{"smiles": "CNc1cc2ccn(-c3ccc(NC(=O)NS(=O)(=O)c4ccc(Cl)s4)cc3)c(=O)c2cc1F", "note": "[5-chloro-N-[({4-[7-fluoro-6-(methylamino)-1-oxoisoquinolin-2(1H)-yl]phenyl}amino)carbonyl]thiophene-2-sulfonamide]", "values": [{"measurement": "blockade of the P2Y12 receptor", "setting": "P2Y12 receptor", "result": "full blockade"}]}
{"smiles": "CC(C)(C)N/C(=N\\C#N)Nc1cccc(/C(=C\\CCCC(=O)O)c2cccnc2)c1", "note": "[Terbogrel]", "values": [{"measurement": "large mixed platelet/leukocyte aggregates in the low shear area", "setting": "[7]", "result": "prevented"}]}
{"smiles": "N=C(N)NCCCC[C@@H]1NC(=O)CCSSC[C@@H](C(N)=O)NC(=O)[C@@H]2CCCN2C(=O)[C@H](Cc2c[nH]c3ccccc23)NC(=O)[C@H](CC(=O)O)NC(=O)CNC1=O", "note": "[eptifibatide] ([Mpa][hArg]GDWPC-NH2; disulfide 1-7)", "values": [{"measurement": "effect on preformed thrombi, aspirin background", "setting": "[3]", "result": "sudden dethrombosis"}, {"measurement": "mean slope after first perfusion (mSAFP), aspirin background", "setting": "[3]", "result": "−2.6±0.9"}, {"measurement": "mean slope after first perfusion (mSAFP)", "setting": "[3]", "result": "0.17±0.22"}, {"measurement": "effect on preformed thrombi", "setting": "[3]", "result": "no apparent destabilization"}, {"measurement": "thrombotic profile (real time kinetics of thrombus formation)", "setting": "[10]", "result": "flat curve"}]}
{"smiles": "CCCCCNC(=O)c1coc([C@H]2[C@@H](Cc3ccccc3CCC(=O)O)[C@@H]3CC[C@H]2O3)n1", "note": "[Ifetroban]", "values": [{"measurement": "effect on preformed thrombi, aspirin background", "setting": "[3]", "result": "abolished the destabilization effects"}, {"measurement": "mean slope after first perfusion (mSAFP)", "setting": "[3]", "result": "−2.5±0.6"}]}
